Columns and labels:
Test in all cases: relative viability (nuclei count vs DMSO), 5 days (fraction); higher = more cells survive
[1] = compound: CN(NC(=O)CC(=O)NN(C)C(=S)c1ccccc1)C(=S)c1ccccc1 [Elesclomol] + Nc1ncn([C@H]2C[C@H](O)[C@@H](CO)O2)c(=O)n1 [Decitabine] (partner 2 µM)
How it was run: (§1)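 Lung cancer cell lines were pin-tool dosed in 1536-well plates on the day after seeding, with either a lone drug or a fixed anchor-drug dose plus five library-drug doses (not always all listed) in √10 steps. Nuclei were counted on 4× images after 5 days. Relative viability is the ratio of treated-well to vehicle-well nuclei counts, with each value a median of duplicate plates.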

[2] = compound: CN(NC(=O)CC(=O)NN(C)C(=S)c1ccccc1)C(=S)c1ccccc1 [Elesclomol] + COc1cc2c(Oc3ccc(NC(=O)C4(C(=O)Nc5ccc(F)cc5)CC4)cc3F)ccnc2cc1OCCCN1CCOCC1 [Foretinib] (partner 0.25 µM)
How it was run: as §1

[3] = compound: CN(NC(=O)CC(=O)NN(C)C(=S)c1ccccc1)C(=S)c1ccccc1 [Elesclomol] + Cc1nc(Nc2ncc(C(=O)Nc3c(C)cccc3Cl)s2)cc(N2CCN(CCO)CC2)n1 [Dasatinib] (partner 0.075 µM)
How it was run: as §1

[4] = compound: CN(NC(=O)CC(=O)NN(C)C(=S)c1ccccc1)C(=S)c1ccccc1 [Elesclomol] + Cc1cc(Nc2cc(N3CCN(C)CC3)nc(Sc3ccc(NC(=O)C4CC4)cc3)n2)n[nH]1 [Tozasertib] (partner 0.1 µM)
How it was run: as §1

[5] = compound: CN(NC(=O)CC(=O)NN(C)C(=S)c1ccccc1)C(=S)c1ccccc1 [Elesclomol] + CC1(C)CCC(c2ccc(Cl)cc2)=C(CN2CCN(c3ccc(C(=O)NS(=O)(=O)c4ccc(N[C@H](CCN5CCOCC5)CSc5ccccc5)c(S(=O)(=O)C(F)(F)F)c4)cc3)CC2)C1 [Navitoclax] (partner 0.5 µM)
How it was run: as §1

| Cell Line | relative viability ([1]; first compound 0.003162 µM) | relative viability ([1]; first compound 0.01 µM) | relative viability ([1]; first compound 0.03162 µM) | relative viability ([1]; first compound 0.1 µM) | relative viability ([2]; first compound 0.003162 µM) | relative viability ([2]; first compound 0.01 µM) | relative viability ([2]; first compound 0.03162 µM) | relative viability ([2]; first compound 0.1 µM) | relative viability ([3]; first compound 0.003162 µM) | relative viability ([3]; first compound 0.01 µM) | relative viability ([3]; first compound 0.03162 µM) | relative viability ([3]; first compound 0.1 µM) | relative viability ([4]; first compound 0.003162 µM) | relative viability ([4]; first compound 0.01 µM) | relative viability ([4]; first compound 0.03162 µM) | relative viability ([4]; first compound 0.1 µM) | relative viability ([5]; first compound 0.003162 µM) | relative viability ([5]; first compound 0.01 µM) | relative viability ([5]; first compound 0.03162 µM) | relative viability ([5]; first compound 0.1 µM) |
| --- | --- | --- | --- | --- | --- | --- | --- | --- | --- | --- | --- | --- | --- | --- | --- | --- | --- | --- | --- | --- |
| HCC-366 | 0.39 | 0.31 | 0.0994 | 0.0263 | 0.893 | 0.945 | 0.899 | 0.0283 | 0.596 | 0.624 | 0.542 | 0.029 | 0.158 | 0.0679 | 0.0952 | 0.0212 | 1.06 | 1.07 | 1.02 | 0.137 |
| HCC-827 | 0.344 | 0.35 | 0.283 | 0.252 | 0.991 | 0.913 | 1.12 | 0.683 | 0.253 | 0.217 | 0.276 | 0.425 | 0.432 | 0.4 | 0.421 | 0.355 | 1.02 | 0.995 | 1 | 0.756 |
| HOP-62 | 0.189 | 0.231 | 0.214 | 0.137 | 1.12 | 0.948 | 0.677 | 0.349 | 0.678 | 0.638 | 0.458 | 0.213 | 0.359 | 0.305 | 0.277 | 0.141 | 0.904 | 0.553 | 0.647 | 0.302 |
| IA-LM | – | – | – | – | 1.13 | 0.54 | 0.0372 | 0.009 | – | – | – | – | – | – | – | – | 0.415 | 0.133 | 0.0436 | 0.0194 |
| LC-2-ad | 0.763 | 0.653 | 0.391 | 0.218 | 0.697 | 0.411 | 0.267 | 0.286 | 0.492 | 0.196 | 0.202 | 0.179 | 0.394 | 0.274 | 0.277 | 0.231 | 0.521 | 0.213 | 0.062 | 0.099 |
| LCLC-97TM1 | 0.258 | 0.198 | 0.211 | 0.131 | 0.986 | 0.952 | 0.909 | 0.418 | 0.854 | 0.765 | 0.798 | 0.264 | 0.196 | 0.148 | 0.178 | 0.153 | 0.368 | 0.298 | 0.253 | 0.115 |
| LCLC-103H | 0.765 | 0.686 | 0.734 | 0.742 | 0.771 | 0.768 | 0.862 | 0.487 | 0.498 | 0.344 | 0.533 | 0.399 | 0.477 | 0.377 | 0.426 | 0.202 | – | – | – | – |
| LK-2 | 0.288 | 0.314 | 0.276 | 0.113 | 0.89 | 0.969 | 0.719 | 0.177 | 0.275 | 0.367 | 0.23 | 0.105 | 0.172 | 0.166 | 0.153 | 0.12 | 0.671 | 0.247 | 0.142 | 0.115 |
| LOU-NH91 | 0.868 | 0.775 | 0.756 | 0.72 | 0.902 | 0.868 | 0.862 | 0.807 | 0.546 | 0.52 | 0.428 | 0.432 | 0.631 | 0.575 | 0.581 | 0.568 | 0.672 | 0.465 | 0.307 | 0.282 |
| LU99A | 0.904 | 0.807 | 0.794 | 0.556 | 0.883 | 0.625 | 0.815 | 0.234 | 0.569 | 0.39 | 0.512 | 0.185 | 0.305 | 0.245 | 0.274 | 0.165 | 0.79 | – | 0.881 | 0.132 |
| NCI-H358 | 0.171 | 0.108 | 0.0885 | 0.0726 | 0.261 | 0.182 | 0.106 | 0.1 | 0.0973 | 0.101 | 0.0734 | 0.0654 | 0.0718 | 0.0649 | 0.0613 | 0.0545 | – | – | – | – |
| NCI-H522 | 0.693 | 0.649 | 0.7 | 0.469 | – | – | – | – | 0.842 | 0.812 | 0.868 | 0.454 | 0.563 | 0.608 | 0.567 | 0.465 | – | – | – | – |
| NCI-H650 | 0.343 | 0.281 | 0.211 | 0.16 | 1.07 | 0.509 | 0.329 | 0.243 | 0.535 | 0.341 | 0.227 | 0.24 | 0.737 | 0.351 | 0.222 | 0.192 | – | – | – | – |
| NCI-H661 | 0.58 | 0.468 | 0.296 | 0.239 | 0.885 | 0.54 | 0.275 | 0.293 | 0.869 | 0.477 | 0.223 | 0.177 | 0.356 | 0.3 | 0.245 | 0.213 | – | – | – | – |
| NCI-H1563 | – | – | – | – | 0.727 | 0.724 | 0.617 | 0.459 | 0.447 | 0.476 | 0.413 | 0.382 | – | – | – | – | – | – | – | – |
| NCI-H1703 | – | – | – | – | 0.26 | 0.207 | 0.129 | 0.133 | – | – | – | – | – | – | – | – | 0.141 | 0.0995 | 0.116 | 0.107 |
| NCI-H1792 | 0.53 | – | 0.523 | 0.443 | – | – | – | – | 0.951 | 0.586 | 0.612 | 0.655 | – | – | – | – | 0.608 | 0.566 | 0.504 | 0.628 |
| NCI-H2228 | – | – | – | – | 0.863 | 0.844 | 0.252 | 0.054 | 0.545 | 0.269 | 0.2 | 0.039 | 0.242 | 0.257 | 0.166 | 0.051 | 0.739 | 0.586 | 0.325 | 0.0519 |
| NCI-H2342 | 0.697 | 0.866 | 0.784 | 0.602 | 1.08 | 0.915 | 0.437 | 0.344 | 0.318 | 0.305 | 0.247 | 0.267 | 0.466 | 0.476 | 0.332 | 0.324 | – | – | – | – |
| SW 900 | 0.404 | 0.358 | 0.204 | 0.13 | 0.87 | 0.91 | 0.127 | 0.0681 | 0.626 | 0.41 | 0.144 | 0.196 | 0.534 | 0.3 | 0.121 | 0.146 | – | – | – | – |

From the supplement of paper PMC10307832
